Measurements published in patent US7582646B2, “Pyrimidine derivatives for treatment of hyperproliferative disorders” (Bayer Pharmaceuticals Corporation, priority 2003, dated 2009).
pIC50: −log10 of the molar value. Where a name gives a salt, the structure may show the parent alone. Read-outs that look alike come from different tables or passages of the source.

Tests used:
[1] = test system: HCT116 cells; assay: HCT116 cytotoxic activity assay (Alamar Blue, 72 h); details: Homo sapiens, HCT-116, read-out: IC50 in the HCT116 cytotoxic activity assay
Description: (§1) Human tumor cells, e.g., HCT116 cells, are seeded in a 96-well plate at 3.0×10^3 cells/well and grown in 100 μl of RPMI complete media (Invitrogen Corporation, Grand Island, N.Y.) containing 10% fetal bovine serum (Hyclone, Logan, Utah) and 10 mM HEPES and at 37° C. for 16 h in an incubator with 5% CO2. To each well, 50 μl of additional growth media containing 20 μM to 60 nM concentrations of compound with 0.2% DMSO is added. Cells are grown for another 72 h at 37° C. 20 μl of Alamar Blue (Trek Diagnostic Systems, Inc., Cleveland, Ohio) reagent is added to each well and incubated for 4 h at 37° C. Plates are read in a SpectraMax Gemini (Molecular Devices, CA) with 544 nm excitation and 590 nm emission wavelength. IC50 values are determined by linear regression analysis of log drug concentration versus percent inhibition.

[2] = test system: HCT116 cells
Description: as §1

SMILES | pIC50 [1] | pIC50 [2]
Nc1nc(Nc2ccc(Oc3ccnc(CNS(=O)(=O)c4ccccc4)c3)cc2)cc(-c2ccccc2)n1 [Example 96, N-[(4-{4-[(2-amino-6-phenylpyrimidin-4-yl)amino]phenoxy}pyridin-2-yl)methyl]benzenesulfonamide trifluoroacetate] | ≥ 6.30 | –
CCS(=O)(=O)NCc1cc(Oc2ccc(Nc3cc(-c4ccccc4)nc(N)n3)cc2)ccn1 [Example 94, N-[(4-{4-[(2-amino-6-phenylpyrimidin-4-yl)amino]phenoxy}pyridin-2-yl)methyl]ethanesulfonamide trifluoroacetate] | ≥ 6.30 | –
Cn1cnc(S(=O)(=O)NCc2cc(Oc3ccc(Nc4cc(-c5ccccc5)nc(N)n4)cc3)ccn2)c1 [Example 93, N-[(4-{4-[(2-amino-6-phenylpyrimidin-4-yl)amino]phenoxy}pyridin-2-yl)methyl]-1-methyl-1H-imidazole-4-sulfonamide trifluoroacetate] | < 5.70 | –
Nc1nc(Nc2ccc(Oc3ccnc(C(=O)N4CC[C@@H](O)C4)c3)cc2)cc(-c2ccccc2)n1 [Example 82, (3R)-1-[(4-{4-[(2-amino-6-phenylpyrimidin-4-yl)amino]phenoxy}pyridin-2-yl)carbonyl] pyrrolidin-3-ol trifluoroacetate (salt)] | 5.70 to 6.30 | –
Nc1nc(Nc2ccc(Oc3ccnc(NCc4ccccc4)c3)cc2)cc(-c2ccccc2)n1 [Example 132, N4*-(4-{[2-(benzylamino)pyridin-4-yl]oxy}phenyl)-6-phenyl-pyrimidine-2,4-diamine trifluoroacetate] | 5.70 to 6.30 | –
NC(=O)NCc1cc(Oc2ccc(Nc3cc(-c4ccccc4)nc(N)n3)cc2)ccn1 [Example 101, N-[(4-{4-[(2-amino-6-phenylpyrimidin-4-yl)amino]phenoxy}pyridin-2-yl)methyl]urea trifluoroacetate] | 5.70 to 6.30 | –
NCC(=O)Nc1ccc(-c2cc(Nc3ccc(Oc4ccnc(C(F)(F)F)c4)cc3)nc(N)n2)cc1 [Example 151, N-(4-{2-amino-6-[(4-{[2-(trifluoromethyl)pyridin-4-yl]oxy}phe-nyl)amino]pyrimidin-4-yl}phenyl)glycinamide trifluoroacetate] | ≥ 6.30 | –
Nc1nc(Nc2ccc(Oc3ccnc(CNS(=O)(=O)c4ccc(F)cc4)c3)cc2)cc(-c2ccccc2)n1 [Example 98, N-[(4-{4-[(2-amino-6-phenylpyrimidin-4-yl)amino]phenoxy}pyridin-2-yl)methyl]-4-fluorobenzenesulfonamide trifluoroacetate] | ≥ 6.30 | –
NCCCC(=O)Nc1ccc(-c2cc(Nc3ccc(Oc4ccnc(C(F)(F)F)c4)cc3)nc(N)n2)cc1 [Example 152, 4-amino-N-(4-{2-amino-6-[(4-{[2-(trifluoromethyl)pyridin-4-yl]oxy}phe-nyl)amino]pyrimidin-4-yl}phenyl)butanamide trifluoroacetate] | 5.70 to 6.30 | –
N#CCc1ccc(-c2cc(Nc3cccc(Oc4ccnc(C(N)=O)c4)c3)nc(N)n2)cc1 [Example 294, 4-[3-({2-amino-6-[4-(cyanomethyl)phenyl]pyrimidin-4-yl}amino)phenoxy] pyridine-2-carboxamide] | – | 5.70 to 6.30
COc1ccc(S(=O)(=O)NCc2cc(Oc3ccc(Nc4cc(-c5ccccc5)nc(N)n4)cc3)ccn2)cc1 [Example 97, N-[(4-{4-[(2-amino-6-phenylpyrimidin-4-yl)amino]phenoxy}pyridin-2-yl)methyl]-4-methoxybenzenesulfonamide trifluoroacetate] | ≥ 6.30 | –
COc1cc(-c2cc(Nc3ccc(Oc4ccnc(C#N)c4)cc3)nc(N)n2)ccc1N [Example 179, 4-(4-{[2-amino-6-(4-amino-3-methoxyphenyl)pyrimidin-4-yl]a-mino}phenoxy)pyridine-2-carbonitrile trifluoroacetate] | ≥ 6.30 | –
COC[C@@H]1CCCN1C(=O)c1cc(Oc2ccc(Nc3cc(-c4ccccc4)nc(N)n3)cc2)ccn1 [Example 81, N4*-{4-[(2-{[(2S)-2-(methoxymethylpyrrolidin-1-yl]carbonyl}pyridin-4-yl)oxy]phenyl}-6-phenylpyrimidine-2,4-diamine trifluoroacetate] | < 5.70 | –
NCc1cc(Oc2ccc(Nc3cc(-c4ccccc4)nc(N)n3)cc2)ccn1 [Example 39, N^4-(4-{[2-(aminomethyl)pyridin-4-yl]oxy}phenyl)-6-phenylpyrimidine-2,4-diamine] | ≥ 6.30 | –
CC(C)S(=O)(=O)NCc1cc(Oc2ccc(Nc3cc(-c4ccccc4)nc(N)n3)cc2)ccn1 [Example 95, N-[(4-{4-[(2-amino-6-phenylpyrimidin-4-yl)amino]phenoxy}pyridin-2-yl)methyl]propane-2-sulfonamide trifluoroacetate] | ≥ 6.30 | –
